This test has as its system Myzus persicae. Nature of the test: Example B6: action against Myzus persicae (leaf circle bioassay, sprayed Capsicum plants). To be noted: 96 h, read-out: Action % (mortality of nymphs). The class given is in vivo. An excerpt: A synergistic effect is always present if the action EA of the combination of an active compound of the formula (A) with one of the active compounds (I) to (XXXI) is greater than the sum of the action of the active compounds applied individually:
However, the pesticidal action EA to be expected for a given combination of two pesticides can also be calculated as follows (cf. COLBY, S. R., “Calculating synergistic and antagonistic response of herbicide combinations”, Weeds 15, Pages 20-22, 1967): [formula]
X=Percent mortality on treatment with the compound of the formula (A) at a rate of application of p kg per hectare compared with the untreated control (=0%).
Y=Percent mortality on treatment with a compound (I) to (XXXI) at a rate of application of q kg per hectare compared with the untreated control.
EA=Expected pesticidal action (percent mortality compared with the untreated control) after treatment with the compound of the formula (A) and a compound (I) to (XXXI) at a rate of application of p+q kg of active compound per hectare.
If the action actually observed is greater than the expected value EA, synergism exists.
Action Against Myzus persicae
Capsicum plants (Capsicum annuum L.) 6 weeks old are sprayed with an aqueous emulsion spray liquor which comprises the individual compounds and mixtures according to the following table. The plants were placed in a greenhouse until determination of the activity.
The activity against Myzus persicae was measured in bioassays. 2-4 hours after application, circles of leaf are stamped out, placed with the upper side down on agar in Petri dishes and infested with an M. persicae mixed population consisting of 40-50 non-synchronous individuals. A total of 9 circles of leaf per concentration are used. The Petri dishes are covered with a cotton wool filter, closed with a plastic lid and placed in a climatically controlled chamber for plants. One day after infestation, the circles of leaf are cleaned of adults, skins and nymphs, so that only 25-40 nymphs laid overnight remain per circle of leaf. Four days after infestation, the mortality is determined by counting the dead and living nymphs. The tests are carried out 3 times. The results shown in the table are the average values of the tests.

In the case of `CC1(C)C(C=C(Cl)Cl)C1C(=O)OC(C#N)c1cccc(Oc2ccccc2)c1` (racemic) [Cypermethrin high-cis, (RS)-α-cyano-3-phenoxybenzyl (1RS)-cis-trans-3-(2,2-dichlorvinyl)-1,1-dimethylcyclo-propanecarboxylate], the mortality (commonly the percentage killed) at 600 ppm (Conc. 600 ppm, four days after infestation, average of 3 tests) worked out at 8.2%.
Turning to `CN1COCN(Cc2cnc(Cl)s2)C1=N[N+](=O)[O-]` [A.5, 5-(2-chlorothiazol-5-ylmethyl)-3-methyl-4-nitroimino-perhydro-1,3,5-oxadiazine], the mortality at 0.1 ppm (Conc. 0.1 ppm, four days after infestation, average of 3 tests) was found to be 5.9%. Further, the mortality at 0.2 ppm (Conc. 0.2 ppm, four days after infestation, average of 3 tests) came to 35%.
Consider `CCCSP(=O)(OCC)Oc1ccc(Br)cc1Cl` (centres unmarked) [Profenofos, O-4-bromo-2-chlorophenyl O-ethyl S-propyl phosphorothioate], for which the mortality at 35 ppm is 12.3%.
With `CC1=NNC(=O)N(N=Cc2cccnc2)C1` [Pymetrozine, 2,3,4,5-tetrahydro-3-oxo-4-[(pyridin-3-yl)-methyleneamino]-6-methyl-1,2,4-triazine], the mortality at 0.3 ppm (Conc. 0.3 ppm, four days after infestation, average of 3 tests) stood at 38.4%.

These data come from patent US6514954B1, “Pesticidal compositions” (priority 1997, dated 2003).
